From patent publication US9850273B2, “Combination of estrogens plus antiprogestins with significant partial agonistic effect as an effective treatment of menopausal symptoms and for prevention of the occurrence of breast cancer” (Evestra, Inc., priority 2014, dated 2017)
Read-outs that look alike come from different tables or passages of the source.

Legend:
[1] = tested on: estradiol-primed immature female rabbits; assay: McPhail and anti-McPhail tests in rabbits; format: in vivo, rabbit; settings: dose of 3 mg/animal/day
Source text: The McPhail test in the immature female rabbit is a well-established model to test progestatational and antiprogestational activity [McPhail 1934).

guinea pig = assay: Guinea pig model (ovulation inhibition, uterine weight, vagina, ovary, classification); format: in vivo; settings: for Classification: guinea pig model; for ER-/PR balance vagina. / Ovary (CL): at max. dose (10.mg/day s.c.); for Ovary (CL): CL = corpora lutea
progesterone receptor [2] = biological target: T1, progesterone receptor (Homo sapiens, UniProt P06401); assay: PR transactivation assay, antagonistic activity (PR luciferase reporter); format: cell-based; settings: for Ratio of IC50's: PR agonism / PR antagonism
T1 sequence (P06401 165-933 limits assumed): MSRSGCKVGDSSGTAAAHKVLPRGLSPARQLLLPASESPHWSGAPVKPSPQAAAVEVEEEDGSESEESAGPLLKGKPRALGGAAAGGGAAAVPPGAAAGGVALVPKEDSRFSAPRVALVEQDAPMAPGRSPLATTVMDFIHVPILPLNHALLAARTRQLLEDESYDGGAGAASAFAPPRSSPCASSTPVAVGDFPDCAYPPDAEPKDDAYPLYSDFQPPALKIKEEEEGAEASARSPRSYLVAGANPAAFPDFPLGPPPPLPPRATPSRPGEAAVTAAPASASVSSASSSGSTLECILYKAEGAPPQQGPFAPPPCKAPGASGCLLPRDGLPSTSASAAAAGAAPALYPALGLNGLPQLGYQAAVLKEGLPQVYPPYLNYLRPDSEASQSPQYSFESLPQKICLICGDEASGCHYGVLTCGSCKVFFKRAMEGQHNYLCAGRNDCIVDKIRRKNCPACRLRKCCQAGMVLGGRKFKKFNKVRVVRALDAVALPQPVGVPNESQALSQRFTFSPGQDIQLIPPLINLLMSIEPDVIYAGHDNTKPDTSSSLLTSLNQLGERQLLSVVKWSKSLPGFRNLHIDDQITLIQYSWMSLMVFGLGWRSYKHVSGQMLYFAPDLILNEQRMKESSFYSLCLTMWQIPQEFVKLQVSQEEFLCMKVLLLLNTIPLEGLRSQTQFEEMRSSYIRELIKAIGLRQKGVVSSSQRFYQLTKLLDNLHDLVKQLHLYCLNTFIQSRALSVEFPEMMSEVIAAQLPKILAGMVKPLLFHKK
Protocol: (§1) Transactivation Assay for Progesterone Agonist and Antagonistic Activity (See Table 1).
Experimental: PR transactivation studies was carried out in human breast cancer (T47D) cells, grown in RPMI medium without phenol red and 5% charcoal stripped fetal bovine serum, transiently transfected with PR luciferase reporter (CCS-6043L signal reporter assay kit, Qiagen). The cells were stimulated R5020 as PR agonist and treated in the presence or absence of the tested compounds for 24 hours.

progesterone receptor [3] = biological target: T2, progesterone receptor (Homo sapiens, UniProt P06401); assay: PR transactivation assay, agonistic activity (PR luciferase reporter); format: cell-based; settings: T47D cells
T2 sequence (P06401 679-933 limits assumed): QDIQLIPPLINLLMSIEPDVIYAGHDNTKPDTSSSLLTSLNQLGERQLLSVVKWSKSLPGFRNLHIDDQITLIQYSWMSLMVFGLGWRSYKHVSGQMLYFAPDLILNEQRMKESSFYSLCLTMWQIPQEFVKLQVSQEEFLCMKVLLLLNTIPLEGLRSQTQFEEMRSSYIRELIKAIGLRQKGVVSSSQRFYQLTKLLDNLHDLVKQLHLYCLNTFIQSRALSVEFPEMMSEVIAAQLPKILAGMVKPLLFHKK
Protocol: as §1
Experimental: PR transactivation studies was carried out in human breast cancer (T47D) cells, grown in RPMI medium without phenol red and 5% charcoal stripped fetal bovine serum, transiently transfected with PR luciferase reporter (CCS-6043L signal reporter assay kit, Qiagen). The cells were stimulated R5020 as PR agonist and treated in the presence or absence of the tested compounds for 24 hours. The effect was calculated using dual luciferase assay kit (Promega, WI)) based on RU486 as full antagonist and R5020 as agonist for progesterone receptor.

[4] = T47D cells, stimulant R5020, read-out: IC50 Average of 2 expts
[5] = Table 2 summary, read-out: PR antagonism (IC50)
[6] = stimulant R5020, read-out: EC50

SMILES | progestational activity (McPhail test) [1] | Classification (guinea pig) | Uterine Weight at max. dose (10.mg/day s.c.) (guinea pig; guinea pig) | ER-/PR balance vagina. (guinea pig; guinea pig) | Ovary (CL) (guinea pig; guinea pig) | Ratio of IC50's (progesterone receptor [2]) | Antagonist rel to RU486 (%) (progesterone receptor [2]; T47D cells, stimulant R5020) | IC50 (progesterone receptor [2]; [4]) [nM] | IC50 (progesterone receptor [2]; [5]) [nM] | Agonist rel to R5020 (%) (progesterone receptor [3]) | EC50 (progesterone receptor [3]; [6]) [nM] | EC50 (progesterone receptor [3]; control compound R5020, read-out: Control EC50) [nM] | ER-/PR balance vagina.: dose at which the dominance is seen (guinea pig; guinea pig)
CC(=O)O[C@]1(C(C)=O)CC[C@H]2[C@@H]3CCC4=CC(=O)CCC4=C3[C@@H](c3ccc(N(C)C)cc3)C[C@@]21C [CDB-2914, reference compound] | didn't show any activity at all | blunted PR- | (1.01) | ER-domin. | degenerated | 38.4 | 120 | 0.65 | 0.65 | 1.5 | 21.5 | – | –
C=C[C@@H]1CC2C3CCC4=CC(=O)CCC4=C3[C@@H](c3ccc(-c4cccnc4)cc3)C[C@]2(C)C1C(C)=O (stereo partly drawn) [EC344, 11β-{4′-[3′-pyridinyl)phenyl}-16α-ethenyl-19-norpregna-4,9-diene-3,20-dione] | – | – | – | – | – | – | 324 | 0.35 | – | 0.32 | – | – | –
C=C[C@@H]1CC2C3CCC4=CC(=O)CCC4=C3[C@@H](c3ccc(-n4ccnc4)cc3)C[C@]2(C)C1C(C)=O (stereo partly drawn) [EC347] | – | mesoprogestin | 1.01 | PR-domin | degenerated | 3.5 | 120 | 0.95 | 0.95 | 9.7 | 3.4 | – | –
C=C1CCOC12CCC1C3CCC4=CC(=O)CCC4=C3[C@@H](c3ccc(-n4ccnc4)cc3)C[C@@]12C (stereo partly drawn) [EC336] | – | – | – | – | – | 1.0 | 21.8 | 5 | 5 | 7 | 5 | – | –
C[C@]12C[C@H](c3ccc(-n4ccnc4)cc3)C3=C4CCC(=O)C=C4CCC3C1CC[C@@]2(O)C(F)(F)C(F)(F)F (stereo partly drawn) [EC-317] | – | – | – | – | – | 217.3 | 255.3 | 0.46 | 0.46 | 0.35 | – | – | –
CCC(=O)[C@@]1(C)CC[C@H]2[C@@H]3CCC4=CC(=O)CCC4=C3CC[C@@]21C [R5020, reference compound] | – | – | – | – | – | – | – | – | – | – | – | 0.35 | –
CC[C@@H]1CC2C3CCC4=CC(=O)CCC4=C3[C@@H](c3ccc(-n4ccnc4)cc3)C[C@]2(C)C1C(C)=O (stereo partly drawn) [EC346, 11β-{4′-[1′ imidazolyl)phenyl}-16α-ethyl-19-norpregna-4,9-diene-3,20-dione] | – | mesoprogestin | 0.8 | PR-domin | degenerated | – | 378 | 0.3 | – | 0.32 | – | – | –
C[C@]12C[C@H](c3ccc(S(C)(=O)=O)cc3)C3=C4CCC(=O)C=C4CC[C@H]3[C@@H]1CC[C@@]2(O)C(F)(F)C(F)(F)F [BAY 1002670, reference compound] | – | – | – | – | – | 28.7 | 342.9 | 0.325 | 0.33 | 3.9 | 9.5 | – | –
C=C[C@@H]1CC2C3CCC4=CC(=O)CCC4=C3[C@@H](c3ccc(-c4ccoc4)cc3)C[C@]2(C)C1C(C)=O (stereo partly drawn) [EC345, 11β-{4′-[3′-furanyl)phenyl}-16α-ethenyl-19-norpregna-4,9-diene-3,20-dione] | – | – | – | – | – | – | 120 | 1 | – | 0.65 | 49 | – | –
CC(=O)C1[C@H](C)CC2C3CCC4=CC(=O)CCC4=C3[C@@H](c3ccc(-c4cccnc4)cc3)C[C@@]21C (stereo partly drawn) [EC348, 11β-{4′-[3′-pyridinyl)phenyl}-16α-methyl-19-norpregna-4,9-diene-3,20-dione] | – | mesoprogestin | 1.01 | PR-domin | degenerated | 11.8 | 292.7 | 0.39 | 0.39 | 7.0 | 4.61 | – | –
CC[C@@H]1CC2C3CCC4=CC(=O)CCC4=C3[C@@H](c3ccc(-c4ccoc4)cc3)C[C@]2(C)C1C(C)=O (stereo partly drawn) [EC343, 11β-{4′-[3′-furanyl)phenyl}-16α-ethyl-19-norpregna-4,9-diene-3,20-dione] | – | – | – | – | – | 2.2 | 57.1 | 2.1 | 2.1 | 6.4 | 4.75 | – | –
CC[C@@H]1CC2C3CCC4=CC(=O)CCC4=C3[C@@H](c3ccc(-c4cccnc4)cc3)C[C@]2(C)C1C(C)=O (stereo partly drawn) [EC-342, 11β-{4′-[3′-pyridinyl)phenyl}-16α-ethyl-19-norpregna-4,9-diene-3,20-dione] | – | mesoprogestin | 0.86 | PR-domin | degenerated | 5.7 | 120 | 0.95 | 0.95 | 7 | 5.15 | – | –
CC#C[C@]1(O)CC[C@H]2[C@@H]3CCC4=CC(=O)CCC4=C3[C@@H](c3ccc(N(C)C)cc3)C[C@@]21C [RU-486, reference compound] | – | – | (1.26) | – | – | – | – | – | – | – | – | – | ≧1.0 mg
COC[C@]1(OC)CC[C@H]2[C@@H]3CCC4=CC(=O)CCC4=C3[C@@H](c3ccc(/C=N/O)cc3)C[C@@]21C [ASOPRISNIL, reference compound] | – | – | – | – | – | – | – | 0.62 | 0.62 | – | 4.9 | – | –
